From paper PMC7604896, “Synthesis and Antiviral Properties of 1-Substituted 3-[ω-(4-Oxoquinazolin-4(3H)-yl)alkyl]uracil Derivatives” (Acta Naturae, 2020)
pEC50: −log10 of the molar value.

Experiments:
[1] = Cytotoxicity, inhibition of cell growth in HEL cell culture; type: cell-based; conditions: human; HEL cells; concentration reducing cell growth by 50%
VZV Oka (TK+) = test: microbe, parasite or virus in culture; type: cell-based, varicella zoster virus; conditions: Human alphaherpesvirus 3, HEL, read-out: Antiviral activity, EC50 VZV Oka (TK+)
Protocol: (§1) The compounds were evaluated against human cytomegalovirus (HCMV, strains AD-169 and Davis) and the varicella zoster virus (VZV, strains OKA and YS). The antiviral assays were based on the inhibition of virus-induced cytopathicity or plaque formation in human embryonic lung (HEL) fibroblasts. Confluent cell cultures in 96-well microplates were inoculated with 100 CCID50 of the virus (1 CCID50 being the virus dose to infect 50% of the cell culture) or 10 or 100 plaque-forming units (PFU) (for VZV and HCMV) in the presence of varied concentrations of the test compounds. Viral cytopathicity or plaque formation was recorded as soon as it reached completion in the control virus-infected cell cultures not treated with the test compounds.

VZV 07-1 (TK-) = test: microbe, parasite or virus in culture; type: cell-based, varicella zoster virus; conditions: Human alphaherpesvirus 3, HEL, read-out: Antiviral activity, EC50 VZV 07-1 (TK-)
HEL cells = test: Cytotoxicity, alteration of cell morphology in HEL cell culture; type: cell-based, human; conditions: minimum cytotoxic concentration causing microscopically detectable alteration of cell morphology
HCMV Davis = test: Anti-HCMV assay (Davis strain), inhibition of virus-induced cytopathicity or plaque formation in HEL fibroblasts; type: cell-based, human cytomegalovirus; conditions: Human betaherpesvirus 5; HEL cell culture; concentration reducing virus plaque formation by 50%; read-out: Antiviral activity, EC50 HCMV Davis
Protocol: as §1

HCMV AD-169 = test: Anti-HCMV assay (AD-169 strain), inhibition of virus-induced cytopathicity or plaque formation in HEL fibroblasts; type: cell-based, human cytomegalovirus; conditions: HEL cell culture; for pEC50: Human betaherpesvirus 5, AD169, concentration reducing virus plaque formation by 50%, read-out: Antiviral activity, EC50 HCMV AD-169; for Inhibitory properties against HCMV (in words): AD-169 and Davis strains
Protocol: as §1

| SMILES | CC50 [1] | pEC50 (VZV Oka (TK+)) | pEC50 (VZV 07-1 (TK-)) | Cytotoxicity, Cell morphology MCC (HEL cells) | pEC50 (HCMV Davis) | pEC50 (HCMV AD-169) | Inhibitory properties against HCMV (in words) (HCMV AD-169) | melting point |
| --- | --- | --- | --- | --- | --- | --- | --- | --- |
| Nc1nc2c(ncn2COCCO)c(=O)[nH]1 [Acyclovir, reference compound] | > 100 µM |  |  |  |  |  |  |  |
| O=c1[nH]c(=O)n([C@H]2C[C@H](O)[C@@H](CO)O2)cc1/C=C/Br [Brivudine, reference compound] | > 100 µM | 7.41 | 5.22 | > 300 μM |  |  |  |  |
| Nc1ccn(C[C@@H](CO)OCP(=O)(O)O)c(=O)n1 [Cidofovir, reference compound] | 129 µM |  |  | 300 μM | 6.42 | 6.42 |  |  |
| O=c1c2ccccc2ncn1CCn1c(=O)ccn(CCCOc2ccc(Br)cc2)c1=O [Compound 9, 1-[3-(4-Bromophenoxy)propyl]-3-[2-(4-oxoquinazolin-4(3H)-yl)ethyl]uracil] |  | < 4.00 | < 4.00 | 100 μM | < 4.00 | < 4.00 | complete loss of inhibitory properties | 178.5 to 179.5 °C |
| O=c1c2ccccc2ncn1CCn1c(=O)ccn(CCCCOc2ccc(Br)cc2)c1=O [Compound 10, 1-[4-(4-Bromophenoxy)butyl]-3-[2-(4-oxoquinazolin-4(3H)-yl)ethyl]uracil] |  | < 4.70 | < 4.00 | 20 μM | < 4.00 | < 4.70 | complete loss of inhibitory properties | 191 to 192 °C |
| O=c1c2ccccc2ncn1CCn1c(=O)ccn(CCCCCOc2ccc(Br)cc2)c1=O [Compound 11, 1-[5-(4-Bromophenoxy)pentyl]-3-[2-(4-oxoquinazolin-4(3H)-yl)ethyl]uracil] |  | < 4.70 | < 4.00 | 100 μM | < 4.70 | < 4.70 | complete loss of inhibitory properties | 174.5 to 176 °C |
| O=c1c2ccccc2ncn1CCn1c(=O)ccn(CCCCCCOc2ccc(Br)cc2)c1=O [Compound 12, 1-[6-(4-Bromophenoxy)hexyl]-3-[2-(4-oxoquinazolin-4(3H)-yl)ethyl]uracil] |  | < 4.00 | < 4.00 | 100 μM | < 4.70 | < 4.00 |  | 178.5 to 179.5 °C |
| O=c1c2ccccc2ncn1CCn1c(=O)ccn(CCCCCCCCOc2ccc(Br)cc2)c1=O [Compound 13, 1-[8-(4-Bromophenoxy)octyl]-3-[2-(4-oxoquinazolin-4(3H)-yl)ethyl]uracil] | 12.8 µM | < 4.00 | < 4.00 | > 100 μM | < 4.00 | < 4.00 |  | 171.5 to 173 °C |
| O=c1c2ccccc2ncn1CCn1c(=O)ccn(CCCCCCCCCCOc2ccc(Br)cc2)c1=O [Compound 14, 1-[10-(4-Bromophenoxy)decyl]-3-[2-(4-oxoquinazolin-4(3H)-yl)ethyl]uracil] | > 100 µM | < 4.00 | < 4.00 | > 100 μM | < 4.00 | < 4.00 |  | 161 to 162 °C |
| O=c1c2ccccc2ncn1CCn1c(=O)ccn(CCCCCCCCCCCCOc2ccc(Br)cc2)c1=O [Compound 15, 1-[12-(4-Bromophenoxy)dodecyl]-3-[2-(4-oxoquinazolin-4(3H)-yl)ethyl]uracil] | > 100 µM | < 4.00 | < 4.00 | ≥ 100 μM | < 4.00 | < 4.00 |  | 150 to 152 °C |
| O=c1c2ccc(Cl)cc2ncn1CCn1c(=O)ccn(CCCCCOc2ccc(Br)cc2)c1=O [Compound 16, 1-[5-(4-Bromophenoxy)pentyl]-3-[2-(7-chloro-4-oxoquinazolin-4(3H)-yl)ethyl]uracil] |  | < 4.70 | < 4.00 | 20 μM | < 4.70 | < 4.70 | complete loss of inhibitory properties | 154 to 155 °C |
| O=c1c2ccccc2ncn1CCCn1c(=O)ccn(CCCCCOc2ccc(Br)cc2)c1=O [Compound 17, 1-[5-(4-Bromophenoxy)pentyl]-3-[3-(4-oxoquinazolin-4(3H)-yl)propyl]uracil] | 1.81 µM | 4.54 | 4.54 | 20 μM | 5.28 | 5.14 |  | 103.5 to 104.5 °C |
| Cc1ccc2ncn(CCn3c(=O)ccn(CCCCCOc4ccc(Br)cc4)c3=O)c(=O)c2c1 [Compound 18, 1-[5-(4-Bromophenoxy)pentyl]-3-[2-(6-methyl-4-oxoquinazolin-4(3H)-yl)ethyl]uracil] | > 100 µM | < 4.00 | < 4.00 | > 100 μM | < 4.00 | < 4.00 | complete loss of inhibitory properties | 180 to 181.5 °C |
| Nc1nc(O)c2ncn(COC(CO)CO)c2n1 [Ganciclovir, reference compound] | 196 µM |  |  | 350 μM | 5.70 | 5.62 |  |  |
